Here are results for two compounds from patent US20230061736A1, “GPR119 AGONISTS” (Kallyope, Inc., priority 2019, published 2023).

Like-named read-outs stand apart in the source and are kept apart here.

The conditions of series [1]: in rats; Bioorganic & Medicinal Chemistry Letters 27(5), 2017, 1124-1128 (Compound 17 in the reference); cited from earlier work.
For another series, the target named is T1, human GPR119 (hGPR119) (Homo sapiens, UniProt Q8TDV5).
T1 construct: expressed in transfected cells
T1 sequence (Q8TDV5 1-335): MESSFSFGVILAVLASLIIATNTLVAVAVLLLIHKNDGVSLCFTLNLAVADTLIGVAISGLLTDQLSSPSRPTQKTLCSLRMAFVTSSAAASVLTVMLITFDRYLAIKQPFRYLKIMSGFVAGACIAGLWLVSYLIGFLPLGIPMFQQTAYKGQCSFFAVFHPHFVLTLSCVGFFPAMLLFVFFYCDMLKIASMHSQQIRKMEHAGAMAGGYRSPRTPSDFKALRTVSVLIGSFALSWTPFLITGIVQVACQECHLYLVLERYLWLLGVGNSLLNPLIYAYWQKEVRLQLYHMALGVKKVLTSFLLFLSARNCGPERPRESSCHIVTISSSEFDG
Put plainly: cAMP accumulation assay (cAMP Gs dynamic HTRF kit). The format is cell-based. Particulars: CHO-K1 cells stably expressing hGPR119, 4-parameter fit. The method, boiled down:
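CHO-K1 cells stably expressing hGPR119, used as assay-ready frozen stocks at ~10,000 cells/well, exposed to compound dose-response in stimulation buffer with Tween 80 for 60 min at 37° C. cAMP read by HTRF (665/620 nm ratio), normalised to Max/Min controls; EC50 and Max activity from 4-parameter fit.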

Series [2] in a line: In vivo plasma levels in mice after oral gavage. More on the design: species or system C57BL/6J mice. Particulars: mouse, 30 mpk oral gavage, 8 h post-dose. Here is the method:
Male C57BL/6J mice 10-12 weeks old were dosed with test article or vehicle [0.25% (w/v) methylcellulose, 5% (v/v) Polysorbate 80, and 0.02% (w/v) sodium lauryl sulfate in Hanks' Balanced Salt solution (all final concentrations)] by oral gavage at a volume of 10 mL/kg. Animals were euthanized with carbon dioxide 7-8 h post dose. Blood was collected for measurement of plasma concentrations of test article. Unbound exposure was calculated by multiplying the measured total exposure by the free fraction as assessed from plasma protein binding.
Plasma protein binding to isotonic phosphate buffer (PBS) containing 10% C57 BL/6 mouse plasma was determined using equilibrium dialysis of plasma spiked with test article (2 μM) against a dialysis buffer (100 mM sodium phosphate and 150 mM NaCl). At the end of the dialysis (4 hr), aliquots of the plasma and buffer were processed by protein precipitation for LC-MS/MS analysis to quantitate the test article.

The nature of series [3]: Oral bioavailability in mice. The conditions noted are these: mouse, in vivo; C57BL/6 mice; IV 1 mg/kg, PO 30 mg/kg. As for the experimental part: Compounds were dosed IV at 1 mg/kg as a formulation of 0.5 mg/mL in 5% DMSO+30% PEG400+65% water and PO at 30 mg/kg as a formulation of 6 mg/mL in 0.25% methylcellulose+5% Tween 80+0.02% SDS in water (Compound 42) or 0.5% methylcellulose+0.5% Tween 80 in water (Compound 83).

Series [4] is described as follows: In vivo plasma levels in mice after oral gavage. Also noted: species or system C57BL/6J mice. The conditions noted are these: mouse, 30 mpk oral gavage, 2 h post-dose.
The mark [5] stands for this setting: male, C57BL/6J, plasma, 30 mg/kg, read-out: Exposure Total (plasma).
[6] abbreviates: total exposure x free fraction from plasma protein binding.

On to `COCc1cnc(N2CCC([C@H]3C[C@H]3CCOc3cc(F)c(CC(=O)N4CCC4)c(F)c3)CC2)nc1` [1-(azetidin-1-yl)-2-(2,6-difluoro-4-(2-((1S,2R)-2-(1-(5-(methoxymethyl)pyrimidin-2-yl)piperidin-4-yl)cyclopropyl)ethoxy)phenyl)ethan-1-one], for which the bioavailability (as a rule, the share of a dose that reaches the circulation, judged against a reference dose that is usually intravenous) in series [1] was 80%.
On to `O=C(Cc1ccc(OCCCC2CCN(c3ncc(Cl)cn3)CC2)cc1F)N1CC(CNC[C@H](O)[C@@H](O)[C@H](O)[C@H](O)CO)C1` [Example 42, 2-[4-[3-[1-(5-chloropyrimidin-2-yl)-4-piperidyl]propoxy]-2-fluoro-phenyl]-1-[3-[[[(2S,3R,4R,5R)-2,3,4,5,6-pentahydroxyhexyl]amino]methyl]azetidin-1-yl]ethanone], for which the Emax – broadly, the size of the effect at its maximum, as opposed to the concentration needed – on human GPR119 (hGPR119) (1 h, % activity normalized to Max/Min controls) is 100 to 130%. Also, the EC50 (commonly the concentration that produces a half-maximal response) at human GPR119 (hGPR119) (cAMP accumulation) fell in the range of 100 to 1000 nM. Besides, the concentration at 8 h in series [2] (setting [5]) came to 369 nM. In addition, the “Exposure unbound (plasma)” value turned out to be 1.1 nM in series [2] (setting [6]) and 2.4 nM in series [4] (setting [6]). The same compound returned a bioavailability in series [3] of 2.4%. In addition, the concentration at 2 h in series [4] (setting [5]) is 806 nM.
